The subject of data set [1] is Trypanosoma brucei brucei. Put plainly: Anti-trypanosomal activity against Trypanosoma brucei brucei GUTat 3.1 bloodstream forms assessed as reduction in parasitemia incubated for 48 hrs by alamar blue assay. The format is functional, organism-based. Conditions: GUTat 3.1, 48 h. A general note: Alamar Blue is a resazurin reagent that responds to reducing activity.
Data set [2] is described as follows: Cytotoxicity against human NB1RGB cells assessed as reduction in cell viability incubated for 48 hrs by MTT assay. The format is cell-based. A general note: Tetrazolium dyes change colour on reduction, which living cells bring about.
Data set [3] is described as follows: Cytotoxicity against human HF19 cells assessed as reduction in cell viability incubated for 48 hrs by MTT assay. Conditions: HF19, 48 h. The format is cell-based.
Data set [4] deals with Caco-2. Put plainly: Cytotoxicity against human Caco2 cells assessed as reduction in cell viability incubated for 48 hrs by MTT assay. The format is functional, cell-based. Conditions: Caco-2, 48 h.
Data set [5] relates to LoVo. Put plainly: Cytotoxicity against human LoVo cells assessed as reduction in cell viability incubated for 48 hrs by MTT assay. The format is functional, cell-based.
Data set [6] concerns HCT-15. Kind of data set: Cytotoxicity against human HCT15 cells assessed as reduction in cell viability incubated for 48 hrs by MTT assay. The format is functional, cell-based. The following applies: HCT-15, 48 h.
A short description of data set [7]: Cytotoxicity against human KATO III cells assessed as reduction in cell viability incubated for 48 hrs by MTT assay. The format is functional, cell-based.
For data set [8], the system named is Jurkat. Put plainly: Cytotoxicity against human Jurkat cells assessed as reduction in cell viability incubated for 48 hrs by MTT assay. The format is functional, cell-based.
Data set [9] has as its system U-937. Kind of data set: Cytotoxicity against human U937 cells assessed as reduction in cell viability incubated for 48 hrs by MTT assay. Conditions: U-937, 48 h. The format is functional, cell-based.
For data set [10], the system named is HL-60. Kind of data set: Cytotoxicity against human HL60 cells assessed as reduction in cell viability incubated for 48 hrs by MTT assay. The format is functional, cell-based. Conditions: HL-60, 48 h.
The test system of data set [11] is THP-1. Kind of data set: Cytotoxicity against human THP1 cells assessed as reduction in cell viability incubated for 48 hrs by MTT assay. The format is functional, cell-based. The following applies: THP-1, 48 h.
A short description of data set [12]: Selectivity index, ratio of IC50 for human NB1RGB cells to IC50 for Trypanosoma brucei brucei GUTat 3.1 bloodstream forms. Conditions: read-out: Ratio IC50. The format is toxicity, cell-based.
A short description of data set [13]: Selectivity index, ratio of IC50 for human HF19 cells to IC50 for Trypanosoma brucei brucei GUTat 3.1 bloodstream forms. The format is toxicity, cell-based. The following applies: read-out: Ratio IC50.
The nature of data set [14]: Selectivity index, ratio of IC50 for human Caco2 cells to IC50 for Trypanosoma brucei brucei GUTat 3.1 bloodstream forms. The format is functional, Caco-2.
Data set [15] can be described thus: Selectivity index, ratio of IC50 for human LoVo cells to IC50 for Trypanosoma brucei brucei GUTat 3.1 bloodstream forms. The format is functional.
A short description of data set [16]: Selectivity index, ratio of IC50 for human HCT15 cells to IC50 for Trypanosoma brucei brucei GUTat 3.1 bloodstream forms. The format is functional, HCT-15.
Data set [17] in a line: Selectivity index, ratio of IC50 for human KATO III cells to IC50 for Trypanosoma brucei brucei GUTat 3.1 bloodstream forms. The format is functional, KATO III cell.
Data set [18] in a line: Selectivity index, ratio of IC50 for human Jurkat cells to IC50 for Trypanosoma brucei brucei GUTat 3.1 bloodstream forms. The format is functional.
Data set [19] in a line: Selectivity index, ratio of IC50 for human U937 cells to IC50 for Trypanosoma brucei brucei GUTat 3.1 bloodstream forms. The format is functional, U-937.
Data set [20] in a line: Selectivity index, ratio of IC50 for human HL60 cells to IC50 for Trypanosoma brucei brucei GUTat 3.1 bloodstream forms. The format is functional, HL-60.
Data set [21] can be described thus: Selectivity index, ratio of IC50 for human THP1 cells to IC50 for Trypanosoma brucei brucei GUTat 3.1 bloodstream forms. The format is functional, THP-1.

As a reminder, the IC50 is the concentration needed to halve the response being measured. For the compound `COC(=O)C1=CO[C@@H]2O[C@H]3/C(=C\c4ccc(O)c(OC)c4)C(=O)O[C@]34C=C[C@H]1[C@H]24`, the IC50 in data set [1] stood at 1.27 µM; in [2], 6.01 µM; in data set [3] it was 12.1 µM; in data set [4] it was 1.35 µM; in [5] it was 0.11 µM; in data set [6], 16 µM. Moreover, the IC50 in [7] amounted to 0.21 µM; in [8] it was 2.45 µM; in data set [9], 4.08 µM; in data set [10], 3.87 µM; in data set [11], 6.98 µM. In addition, the selectivity ratio in [12] came out at 4.73; in data set [13] it was 9.54. Also, the “Ratio IC50” value in [14] is recorded as 1.06; in [15] it was 0.09; in data set [16] it was 12.63; in data set [17], 0.17; in [18], 1.93; in data set [19] it was 3.21. Besides, the “Ratio IC50” value in data set [20] was 3.05; in data set [21] it was 5.5.

The values are drawn from ChEMBL document CHEMBL3596124, “New anti-trypanosomal active tetracyclic iridoid isolated from Morinda lucida Benth” (Bioorg Med Chem Lett, 2015).
